The term IC50 denotes the concentration that gives 50% inhibition. Lower therefore signals greater potency in that assay.

One assay addresses T1, KAT5 (Homo sapiens, UniProt Q92993).
T1 construct: His-TEV tag (N, cleaved yes); made in house
Put plainly: KAT5 enzyme inhibition assay (SAMDI mass spectrometry). Format: biochemical. As to conditions: His-TEV-FL KAT5-Flag enzyme construct.

In a further assay the target is T2, KAT6A (Homo sapiens, UniProt Q92794).
T2 construct: His-TEV tag (N, cleaved yes); made in house
T2 sequence (Q92794 with tags, fused parts or gaps): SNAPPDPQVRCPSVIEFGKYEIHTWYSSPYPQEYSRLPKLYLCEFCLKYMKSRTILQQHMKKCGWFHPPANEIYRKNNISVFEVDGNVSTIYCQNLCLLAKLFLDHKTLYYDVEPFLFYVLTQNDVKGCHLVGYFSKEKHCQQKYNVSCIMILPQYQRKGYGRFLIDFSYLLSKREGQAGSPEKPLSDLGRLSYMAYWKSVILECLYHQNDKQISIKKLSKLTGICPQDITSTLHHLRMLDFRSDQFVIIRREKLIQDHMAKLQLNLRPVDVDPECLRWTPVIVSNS
Put plainly: KAT6A enzyme inhibition assay (SAMDI mass spectrometry). Format: biochemical. As to conditions: His-TEV-KAT6A 501-784 enzyme construct.

T1 sequence (Q92993 with tags, fused parts or gaps): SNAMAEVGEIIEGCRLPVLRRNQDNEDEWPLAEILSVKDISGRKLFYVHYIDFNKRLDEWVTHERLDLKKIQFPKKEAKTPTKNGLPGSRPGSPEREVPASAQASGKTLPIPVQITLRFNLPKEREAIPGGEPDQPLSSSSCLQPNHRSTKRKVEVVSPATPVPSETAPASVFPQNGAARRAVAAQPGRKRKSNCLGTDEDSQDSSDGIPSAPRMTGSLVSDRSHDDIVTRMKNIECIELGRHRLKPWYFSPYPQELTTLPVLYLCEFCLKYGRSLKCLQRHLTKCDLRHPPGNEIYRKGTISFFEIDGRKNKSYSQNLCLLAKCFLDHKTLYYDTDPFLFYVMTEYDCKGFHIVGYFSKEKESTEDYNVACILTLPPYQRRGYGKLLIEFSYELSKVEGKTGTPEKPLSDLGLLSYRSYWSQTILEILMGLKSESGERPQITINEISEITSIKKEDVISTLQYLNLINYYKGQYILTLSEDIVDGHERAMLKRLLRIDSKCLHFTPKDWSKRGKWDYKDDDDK

As for `Cc1cc(-c2ccccc2)cc(C(=O)NNS(=O)(=O)c2cccc(C(N)=O)c2)c1F` [Compound I-383], the IC50 against KAT5 and at KAT6A was not above 10 µM in each case.
As for `Cc1cc(-c2ccc(C(C)C)cc2)cc(C(=O)NNS(=O)(=O)c2ccccc2)c1F` [Compound I-384], the results for the IC50 at KAT5 and on KAT6A were more than 100 µM and not above 10 µM, respectively.
The corresponding values for `Cc1cc(-c2ccccc2)cc(C(=O)NNS(=O)(=O)C(C)C2CCCCC2)c1F` (stereo not shown) [Compound I-385] are not above 10 µM and not above 10 µM.
For `Cc1cc(-c2cccc(OCCN(C)C)c2)cc(C(=O)NNS(=O)(=O)c2ccccc2)c1F` [Compound I-386], the figures for the IC50 against KAT5 and against KAT6A were more than 100 µM and 10 to 50 µM, respectively.
As to `Cc1c(-c2ccccc2)ccc(F)c1C(=O)NCC(=O)NC(Cc1ccccc1)C(C)C` (stereo not shown) [Compound I-387], the IC50 on KAT5 and at KAT6A was more than 100 µM each time.
Take `CC(=O)N1CCC(CS(=O)(=O)NNC(=O)c2cc(-c3cccc(F)c3)cc(C)c2F)CC1` [Compound I-388]: the IC50 at KAT5 and on KAT6A was not above 10 µM in each case.
On to `CNCCC(=O)N1CCC(CS(=O)(=O)NNC(=O)c2cc(-c3cccc(F)c3)cc(C)c2F)CC1` [Compound I-389], for which the half-maximal inhibitory concentration (IC50) at KAT5 and against KAT6A was 10 to 50 µM each time.
Consider `O=C(NNS(=O)(=O)C1CCCCC1)c1cc(-c2ccccc2F)cc(Cl)c1F` [Compound I-390], for which the IC50 against KAT5 and against KAT6A was not above 10 µM in each case.
In the case of `COc1cc(C)c(F)c(C(=O)NNS(=O)(=O)C2CCCCC2)c1` [Compound I-391], the figures for the IC50 on KAT5 and against KAT6A were not above 10 µM and more than 100 µM, respectively.
The corresponding values for `O=C(NNS(=O)(=O)C1CCCCC1)c1cc(-c2cc(F)cc(F)c2)cc(Cl)c1F` [Compound I-392] are not above 10 µM and 10 to 50 µM.
As to `COc1cc(Cl)c(F)c(C(=O)NNS(=O)(=O)C2CCCCC2)c1` [Compound I-393], the IC50 on KAT5 was not above 10 µM; on KAT6A, more than 100 µM.
The like results for `COc1cc(Cl)c(F)c(C(=O)NNS(=O)(=O)CC2CCCCC2)c1` [Compound I-394] were, in that order, not above 10 µM and 10 to 50 µM.
The like results for `O=C(NNS(=O)(=O)C1CCCCC1)c1cc(-c2cccc(F)c2)cc(Cl)c1F` [Compound I-395] were, in that order, not above 10 µM and not above 10 µM.
Take `CC(C)(C)OC(=O)N1CCCC(CS(=O)(=O)NNC(=O)c2cc(-c3cccc(F)c3)cc(Cl)c2F)C1` (stereo not shown) [Compound I-396]: the IC50 on KAT5 and at KAT6A was not above 10 µM throughout.
With `O=C(NNS(=O)(=O)CC1CCOCC1)c1cc(-c2cccc(F)c2)cc(Cl)c1F` [Compound I-397], the IC50 against KAT5 and against KAT6A was not above 10 µM each time.
As for `Cc1cc(-c2cccc(F)c2Cl)cc(C(=O)NNS(=O)(=O)CC2CCCCC2)c1F` [Compound I-398], the IC50 at KAT5 fell in the range of 50 to 100 µM; at KAT6A it was 10 to 50 µM.
The like results for `Cc1cc(-c2cccc(F)c2Cl)cc(C(=O)NNS(=O)(=O)C2CCCCC2)c1F` [Compound I-399] were, in that order, 50 to 100 µM and 50 to 100 µM.
On to `O=C(NNS(=O)(=O)CC1CCOCC1)c1cc(-c2ccccc2)cc(Cl)c1F` [Compound I-400], for which the concentration for half-maximal inhibition (IC50) on KAT5 and against KAT6A was not above 10 µM throughout.
On to `CC(C)(C)OC(=O)N1CCCC(CS(=O)(=O)NNC(=O)c2cc(-c3ccccc3)cc(Cl)c2F)C1` (stereo not shown) [Compound I-401], for which the half-maximal inhibitory concentration (IC50) on KAT5 and against KAT6A was not above 10 µM in each case.
As to `Cn1cnc2cc(-c3ccccc3)c(F)c(C(=O)NNS(=O)(=O)C3CCCCC3)c21` [Compound I-402], the IC50 on KAT5 and on KAT6A was more than 100 µM throughout.
Turning to `Cc1cc(-c2cccc(OCCN(C)C)c2)cc(C(=O)NNS(=O)(=O)C2CCCCC2)c1F` [Compound I-403], the IC50 on KAT5 and at KAT6A was more than 100 µM each time.
For the compound `Cc1cccc(-c2cc(Cl)c(F)c(C(=O)NNS(=O)(=O)C3CCCCC3)c2)c1` [Compound I-404], the IC50 on KAT5 and on KAT6A was 10 to 50 µM throughout.
For the compound `CC(C)(C)OC(=O)N1CCC(S(=O)(=O)NNC(=O)c2cc(Cl)cc(Cl)c2F)CC1` [Compound I-405], the half-inhibitory concentration (IC50) against KAT5 is 10 to 50 µM; against KAT6A it was more than 100 µM.
The corresponding values for `O=C(NNS(=O)(=O)C1CCNCC1)c1cc(Cl)cc(Cl)c1F` [Compound I-406] are more than 100 µM and more than 100 µM.
With `CN1CCC(c2ccc(F)c(C(=O)NNS(=O)(=O)C3CCCCC3)c2)C1` (stereo not shown) [Compound I-407], the IC50 against KAT5 and against KAT6A was more than 100 µM in each case.
Consider `COCCN1CCCC(CS(=O)(=O)NNC(=O)c2cc(-c3cccc(F)c3)cc(C)c2F)C1` (stereo not shown) [Compound I-408], for which the IC50 against KAT5 was not above 10 µM; on KAT6A, 10 to 50 µM.
The like results for `Cc1cc(-c2ccccc2)cc(C(=O)NNS(=O)(=O)CC2CCCN(C(=O)CCN(C)C)C2)c1F` (stereo not shown) [Compound I-409] were, in that order, 10 to 50 µM and 10 to 50 µM.
The like results for `O=C(NNS(=O)(=O)CC1CCCNC1)c1cc(-c2ccccc2)cc(Cl)c1F` (stereo not shown) [Compound I-410] were, in that order, 10 to 50 µM and 10 to 50 µM.
The like results for `O=C(NNS(=O)(=O)CC1CCCCC1)c1cc(Cl)cc(Cl)c1F` [Compound I-411] were, in that order, not above 10 µM and 10 to 50 µM.
Regarding `O=C(NNS(=O)(=O)CC1CCOCC1)c1cc(Cl)cc(Cl)c1F` [Compound I-412], the results for the IC50 on KAT5 and on KAT6A were 10 to 50 µM and more than 100 µM, respectively.
The like results for `O=C(NNS(=O)(=O)C1CCCCC1)c1cc(Cl)cc(Cl)c1F` [Compound I-413] were, in that order, 10 to 50 µM and more than 100 µM.
The corresponding values for `O=C(NNS(=O)(=O)C1CCOCC1)c1cc(Cl)cc(Cl)c1F` [Compound I-414] are more than 100 µM and more than 100 µM.
The like results for `CNC(=O)c1cccc(-c2cc(C)c(F)c(C(=O)NNS(=O)(=O)c3ccccc3)c2)c1` [Compound I-415] were, in that order, 10 to 50 µM and not above 10 µM.
For the compound `O=C(NNS(=O)(=O)CC1CCCNC1)c1cc(-c2cccc(F)c2)cc(Cl)c1F` (stereo not shown) [Compound I-416], the IC50 at KAT5 and at KAT6A was 50 to 100 µM in each case.
For `O=C(NNS(=O)(=O)CC1CCCN(C(=O)C2CCC2)C1)c1cc(-c2cccc(F)c2)cc(Cl)c1F` (stereo not shown) [Compound I-417], the IC50 at KAT5 and against KAT6A was not above 10 µM throughout.
`COCC(=O)N1CCCC(CS(=O)(=O)NNC(=O)c2cc(-c3cccc(F)c3)cc(Cl)c2F)C1` (stereo not shown) [Compound I-418]: the IC50 against KAT5 and against KAT6A was not above 10 µM in each case.
In the case of `O=C(NNS(=O)(=O)CC1CCCN(C(=O)C2CCOCC2)C1)c1cc(-c2ccccc2)cc(Cl)c1F` (stereo not shown) [Compound I-419], the half-maximal inhibitory concentration (IC50) against KAT5 and against KAT6A was not above 10 µM throughout.
On to `CCc1cc(Cl)c(F)c(C(=O)NNS(=O)(=O)C2CCCCC2)c1` [Compound I-420], for which the IC50 against KAT5 was 10 to 50 µM; against KAT6A, more than 100 µM.
The like results for `CCc1cc(Cl)c(F)c(C(=O)NNS(=O)(=O)CC2CCCCC2)c1` [Compound I-421] were, in that order, not above 10 µM and 10 to 50 µM.
The corresponding values for `CCc1cc(Cl)c(F)c(C(=O)NNS(=O)(=O)C2CCOCC2)c1` [Compound I-422] are more than 100 µM and more than 100 µM.
The like results for `CCc1cc(Cl)c(F)c(C(=O)NNS(=O)(=O)CC2CCOCC2)c1` [Compound I-423] were, in that order, 10 to 50 µM and more than 100 µM.
For the compound `Cc1cc(-c2ccccc2)cc(C(=O)NNS(=O)(=O)CC2CN(C(=O)OC(C)(C)C)CCO2)c1F` (stereo not shown) [Compound I-424], the IC50 against KAT5 and against KAT6A was not above 10 µM in each case.
As to `Cc1cc(-c2cccc(F)c2)cc(C(=O)NNS(=O)(=O)CC2CN(C(=O)OC(C)(C)C)CCO2)c1F` (stereo not shown) [Compound I-425], the IC50 at KAT5 and at KAT6A was not above 10 µM throughout.
On to `Cc1cc(-c2ccccc2)cc(C(=O)NNS(=O)(=O)CC2CNCCO2)c1F` (stereo not shown) [Compound I-426], for which the IC50 against KAT5 was 10 to 50 µM; against KAT6A, not above 10 µM.
Turning to `CC(=O)N1CCOC(CS(=O)(=O)NNC(=O)c2cc(-c3ccccc3)cc(C)c2F)C1` (stereo not shown) [Compound I-427], the IC50 against KAT5 and against KAT6A was not above 10 µM in each case.
Turning to `Cc1cc(-c2cccc(F)c2)cc(C(=O)NNS(=O)(=O)CC2CNCCO2)c1F` (stereo not shown) [Compound I-428], the results for the IC50 at KAT5 and at KAT6A were 10 to 50 µM and not above 10 µM, respectively.
On to `CC(=O)N1CCOC(CS(=O)(=O)NNC(=O)c2cc(-c3cccc(F)c3)cc(C)c2F)C1` (stereo not shown) [Compound I-429], for which the IC50 at KAT5 and on KAT6A was not above 10 µM each time.
Take `COc1cc(Cl)c(F)c(C(=O)NNS(=O)(=O)C2CCOCC2)c1` [Compound I-430]: the IC50 was 50 to 100 µM at KAT5 and more than 100 µM on KAT6A.
The corresponding values for `COc1cc(Cl)c(F)c(C(=O)NNS(=O)(=O)CC2CCOCC2)c1` [Compound I-431] are 10 to 50 µM and 50 to 100 µM.
As for `Cc1cc(-c2cccc(F)c2)cc(C(=O)NNS(=O)(=O)CC2CCN(C(=O)CCN(C)C)CC2)c1F` [Compound I-432], the IC50 against KAT5 and against KAT6A was 10 to 50 µM throughout.
Turning to `CNC(=O)c1cccc(-c2cc(C)c(F)c(C(=O)NNS(=O)(=O)CC3CCCCC3)c2)c1` [Compound I-433], the IC50 at KAT5 was not above 10 µM; against KAT6A, 10 to 50 µM.
The like results for `CN(C)C(=O)c1cc(Cl)c(F)c(C(=O)NNS(=O)(=O)C2CCOCC2)c1` [Compound I-434] were, in that order, more than 100 µM and more than 100 µM.
The like results for `CC(=O)N1CCC(S(=O)(=O)NNC(=O)c2cc(Cl)cc(Cl)c2F)CC1` [Compound I-435] were, in that order, more than 100 µM and more than 100 µM.
With `O=C(NNS(=O)(=O)C1CCN(C(=O)C2CCC2)CC1)c1cc(Cl)cc(Cl)c1F` [Compound I-436], the IC50 on KAT5 was 50 to 100 µM; against KAT6A, more than 100 µM.
The like results for `COCc1cc(Cl)c(F)c(C(=O)NNS(=O)(=O)CC2CCCCC2)c1` [Compound I-437] were, in that order, not above 10 µM and not above 10 µM.
The corresponding values for `Cc1cc(-c2cccc(F)c2)cc(C(=O)NNS(=O)(=O)C2CCOC2)c1F` (stereo not shown) [Compound I-438] are 10 to 50 µM and 10 to 50 µM.
